In ChEMBL document CHEMBL6092198, “Coumarin-Quinazolinone based photosensitizers: Mitochondria and endoplasmic reticulum targeting for enhanced phototherapy via different cell death pathways” (Eur J Med Chem, 2024):
The source made the active and inactive calls. The calls are words filed in the database; no cut-off is given here.

Key:
[1] = test system: HepG2; experiment: Cytotoxicity against human HepG2 cells assessed as cell viability incubated for 4 hrs under dark condition by MTT assay; type: functional, cell-based; details: HepG2, 4 h
[2] = Photophysical property of the compound in water assessed as fluorescence quantum yield under 450 nm photoirradiation with blue light lamp by U-4100 spectrophotometric analysis; type: physicochemical; set-up: unit not given here; details: buffer
[3] = Phototoxic index, ratio of IC50 for cytotoxicity against human HepG2 cells incubated for 4 hrs under dark condition by MTT assay to IC50 for cytotoxicity against human HepG2 cells preincubated with compound for 4 hrs followed by light irradiation with 450 nm blue LED lamp for 10 mins and measured after 24 hrs by MTT assay; type: functional
[4] = Phototoxicity against human HepG2 cells assessed as cell viability preincubated with compound for 4 hrs followed by light irradiation with 450 nm blue LED lamp for 10 mins and measured after 24 hrs by MTT assay; type: functional, cell-based; details: HepG2, light or radiation study
[5] = Photophysical property of the compound assessed as singlet oxygen quantum yield under 15 W photoirradiation with blue LED light by EPR spectrophotometric analysis; type: physicochemical; set-up: unit not given here
[6] = Photophysical property of the compound in MeOH assessed as fluorescence quantum yield under 450 nm photoirradiation with blue light lamp by U-4100 spectrophotometric analysis; type: physicochemical; set-up: unit not given here
[7] = Drug localization in lysosome of human HepG2 cells at 2 uM incubated for 2 hrs by Lyso-Tracker staining based confocal fluorescence microscopy; type: ADME, subcellular; details: hepg2, 2 h
[8] = test system: HepG2; experiment: Induction of ferroptosis in human HepG2 cells assessed as cell viability preincubated with compound for 4 hrs followed by light irradiation with 450 nm blue LED lamp for 10 mins and measured after 24 hrs in presence of necrostatin-1 by MTT assay; type: functional, cell-based; details: time 1690.0 min
[9] = test system: HepG2; experiment: Induction of ferroptosis in human HepG2 cells assessed as cell viability preincubated with compound for 4 hrs followed by light irradiation with 450 nm blue LED lamp for 10 mins and measured after 24 hrs in presence of chloroquine by MTT assay; type: functional, cell-based; details: time 1690.0 min
[10] = test system: HepG2; experiment: Induction of ferroptosis in human HepG2 cells assessed as cell viability preincubated with compound for 4 hrs followed by light irradiation with 450 nm blue LED lamp for 10 mins and measured after 24 hrs in presence of 3-methyladenine by MTT assay; type: functional, cell-based; details: time 1690.0 min
[11] = Drug localization in endoplasmic reticulum of human HepG2 cells at 2 uM incubated for 2 hrs by ER-Tracker Blue staining based confocal fluorescence microscopy; type: ADME, subcellular; details: hepg2, 2 h
[12] = test system: HepG2; experiment: (§1) Induction of apoptosis in human HepG2 cells assessed as chromatin condensation by measuring increase in red fluorescence at 0.1 uM preincubated with compound for 4 hrs followed by light irradiation with 450 nm blue LED lamp for 10 mins and measured after 24 hrs by PI staining based confocal microscopic analysis; type: functional, cell-based; details: time 1690.0 min
[13] = test system: HepG2; experiment: Induction of ferroptosis in human HepG2 cells assessed as cell death preincubated with compound for 4 hrs followed by light irradiation with 450 nm blue LED lamp for 10 mins and measured after 24 hrs in presence of 50 uM ferrostatin-1 by MTT assay; type: functional, cell-based; details: time 1690.0 min
[14] = test system: HepG2; experiment: as §1, with “in blue” for “in red”, “by Hoechst 33342” for “by PI”; type: functional, cell-based; details: time 1690.0 min
[15] = test system: HepG2; experiment: Induction of ferroptosis in human HepG2 cells assessed as cell death preincubated with compound for 4 hrs followed by light irradiation with 450 nm blue LED lamp for 10 mins and measured after 24 hrs in presence of ferrostatin-1 by MTT assay; type: functional, cell-based; details: time 1690.0 min
[16] = Drug localization in nucleus of human HepG2 cells at 2 uM incubated for 2 hrs by […] staining based confocal fluorescence microscopy; type: ADME, subcellular; details: hepg2, 2 h
[17] = test system: HepG2; experiment: Antiproliferative activity against human HepG2 cells cultured as 3D spheroids assessed as inhibition of cell growth at 5 to 10 uM pretreated with 450 nm light irradiation and compound for 10 mins and measured at day 5 by fluorescence microscopic analysis; type: functional, cell-based; details: dose 5-10 µM, time 7210.0 min
[18] = test system: HepG2; experiment: as §1, with “0.3” for “0.1”; type: functional, cell-based; details: time 1690.0 min
[19] = Drug localization in mitochondria of human HepG2 cells at 2 uM incubated for 2 hrs by MitoTracker red CMXRos staining based confocal fluorescence microscopy; type: ADME; details: hepg2, 2 h
[20] = test system: HepG2; experiment: Induction of ferroptosis in human HepG2 cells assessed as cell viability preincubated with compound for 4 hrs followed by light irradiation with 450 nm blue LED lamp for 10 mins and measured after 24 hrs in presence of 50 uM Fer-1 by MTT assay relative to control; type: functional; details: time 1690 min; 28.17 h
[21] = test system: HepG2; experiment: Induction of apoptosis in human HepG2 cells assessed as increase in Bax expression preincubated with compound for 4 hrs followed by light irradiation with blue LED lamp for 10 mins and measured after 24 hrs by Western blot analysis; type: functional, cell-based; details: time 1690.0 min
[22] = test system: HepG2; experiment: Induction of ferroptosis in human HepG2 cells assessed as downregulation of Gpx4 expression preincubated with compound for 4 hrs followed by light irradiation with blue LED lamp for 10 mins and measured after 24 hrs in presence of Fer-1 by Western blot analysis; type: functional, cell-based; details: time 1690.0 min
[23] = test system: Mitochondrial membrane; experiment: Induction of mitochondrial membrane potential loss in human HepG2 cells at 3 uM incubated for 4 hrs in presence of light irradiation by TMRE staining based fluorescence microscopic analysis; type: cell membranes
[24] = test system: HepG2; experiment: Induction of ferroptosis in human HepG2 cells assessed as downregulation of Fth1 expression preincubated with compound for 4 hrs followed by light irradiation with blue LED lamp for 10 mins and measured after 24 hrs in presence of Fer-1 by Western blot analysis; type: functional, cell-based; details: time 1690.0 min
[25] = test system: HepG2; experiment: Induction of apoptosis in human HepG2 cells assessed as reduction in Bcl-2/Bax ratio preincubated with compound for 4 hrs followed by light irradiation with blue LED lamp for 10 mins and measured after 24 hrs by Western blot analysis; type: functional, cell-based; details: time 1690.0 min
[26] = test system: HepG2; experiment: Induction of apoptosis in human HepG2 cells assessed as effect on PARP level preincubated with compound for 4 hrs followed by light irradiation with blue LED lamp for 10 mins and measured after 24 hrs by Western blot analysis; type: functional, cell-based; details: time 1690.0 min
[27] = test system: HepG2; experiment: Induction of apoptosis in human HepG2 cells assessed as cytochrome C release from mitochondria preincubated with compound for 4 hrs followed by light irradiation with blue LED lamp for 10 mins and measured after 24 hrs by Western blot analysis; type: functional, cell-based; details: time 1690.0 min
[28] = test system: HepG2; experiment: as §1, with “in blue” for “in red”, “at 0.3” for “at 0.1”, “by Hoechst 33342” for “by PI”; type: functional, cell-based; details: time 1690.0 min
[29] = test system: HepG2; experiment: Antiproliferative activity against human HepG2 cells cultured as 3D spheroids assessed as inhibition of cell growth at 5 uM pretreated with 450 nm light irradiation and compound for 10 mins and measured at day 5 by fluorescence microscopic analysis; type: functional, cell-based; details: time 7210.0 min
[30] = test system: HepG2; experiment: Induction of ferroptosis in human HepG2 cells assessed as downregulation of Keap1 expression preincubated with compound for 4 hrs followed by light irradiation with blue LED lamp for 10 mins and measured after 24 hrs in presence of Fer-1 by Western blot analysis; type: functional, cell-based; details: time 1690.0 min
[31] = test system: HepG2; experiment: Induction of apoptosis in human HepG2 cells assessed as change in Bcl-2 level preincubated with compound for 4 hrs followed by light irradiation with blue LED lamp for 10 mins and measured after 24 hrs by Western blot analysis; type: functional, cell-based; details: time 1690.0 min
[32] = test system: HepG2; experiment: Induction of apoptosis in human HepG2 cells assessed as effect on caspase-3 level preincubated with compound for 4 hrs followed by light irradiation with blue LED lamp for 10 mins and measured after 24 hrs by Western blot analysis; type: functional, cell-based; details: time 1690.0 min
[33] = test system: HepG2; experiment: Induction of mitochondrial damage in human HepG2 cells assessed as change in mitochondrial morphology at 1 uM preincubated with compound for 4 hrs followed by light irradiation with blue LED lamp for 10 mins and measured after 24 hrs by confocal microscopic analysis; type: functional, cell-based; details: time 1690.0 min

CCN(CC)c1ccc2cc(-c3nc4ccc(OCCCN5CCOCC5)cc4c(=O)[nH]3)c(=O)oc2c1
IC50 [1]: 12.4 µM
Activity [2]: 31.49
Ratio IC50 [3]: 32.52
IC50 [4]: 0.38 µM
Activity [5]: 13.06
Activity [6]: 79.66
Drug uptake [7]: Active

CCN(CC)c1ccc2cc(-c3nc4ccc(OCc5cn(CCNS(=O)(=O)c6ccc(C)cc6)nn5)cc4c(=O)[nH]3)c(=O)oc2c1
Activity [8]: Active
IC50 [1]: 36.7 µM
Activity [2]: 7.55
Activity [9]: Active
Activity [10]: Active
Drug uptake [11]: Active
Ratio IC50 [3]: 244.93
IC50 [4]: 0.15 µM
Activity [12]: Active
Activity [5]: 30.08
Activity [6]: 59.27
Activity [13]: Active
Activity [14]: Active
Activity [15]: Active

CCN(CC)c1ccc2cc(-c3nc4ccc(OCCN5CCCCC5)cc4c(=O)[nH]3)c(=O)oc2c1
IC50 [1]: 3.95 µM
Activity [2]: 15.68
Ratio IC50 [3]: 35.9
IC50 [4]: 0.11 µM
Activity [5]: 24.5
Activity [6]: 47.65
Drug uptake [16]: Active

CCN(CC)c1ccc2cc(-c3nc4ccc(O)cc4c(=O)[nH]3)c(=O)oc2c1
IC50 [1]: 57.6 µM
Activity [2]: < 5
Ratio IC50 [3]: 2.35
IC50 [4]: 24.5 µM
Activity [5]: 12.86
Activity [6]: 36.66

CCN(CC)c1ccc2cc(-c3nc4ccc(OCc5cn(CCC[P+](c6ccccc6)(c6ccccc6)c6ccccc6)nn5)cc4c(=O)[nH]3)c(=O)oc2c1.[Br-]
Activity [17]: Active
IC50 [1]: 46.7 µM
Activity [18]: Active
Activity [2]: 8.72
Drug uptake [19]: Active
Activity [20]: ~70%
Activity [21]: Active
Activity [22]: Active
Activity [23]: Active
Ratio IC50 [3]: 166.89
IC50 [4]: 0.28 µM
Activity [24]: Active
Activity [5]: 27.22
Activity [25]: Active
Activity [6]: 69.6
Activity [26]: Active
Activity [27]: Active
Activity [28]: Active
Activity [29]: Active
Activity [30]: Active
Activity [31]: inactive
Activity [32]: Active
Activity [33]: Active
